{"source": "paper PMC7200681", "about": "“The calcitonin-like system is an ancient regulatory system of biomineralization” (Scientific Reports, 2020)", "key": {"[1]": {"system": "mussel mantle edge", "test": "Ex-vivo incubation of mantle edge fragments, calcium quantification by MP-AES", "parameters": "species or system Mytilus galloprovincialis", "conditions": "Verapamil 200 µM, 4 hours; data not shown", "description": "Figure 7 Effect of the mussel calcitonin-like peptide on (A) calcium (ppm) concentration in the mantle edge and (B) calcium uptake by mantle cells of the Mediterranean mussel. (A) The quantity of calcium (ppm) present in the mantle edge after mussel CALCIIa peptide incubation was measured using a Microwave Plasma-Atomic Emission Spectrometer (MP-AES, Agilent) at 393.366 nm. A standard curve for calcium was performed before analysing the samples. In vitro mantle assays with CALCIIa peptide and with ouabain and control (culture medium and mantle) were repeated on at least 3 independent occasions. For each assay at least ten replicates were performed and the mantle edge distal to the umbo was used (one mantle fragment per replica). Prism GraphPad v5 software was used to assess the significance of differences between the groups using a One-way Anova and Tukey’s multiple comparison test. […] C - control (no peptide or ouabain); P - peptide (10 μM); O - ouabain (2 mM), OP - ouabain (2 mM) and peptide (10 μM); PreOP - pre -stimulation for 1 hour with the peptide followed by 4 hours incubation with OP. (B) Digital photographs of the mussel mantle cells in the presence (CALCIIa, 10 μM) or absence (control) of the mussel CALCIIa peptide. Calcium ions were stained with 50 mM of Calcein (green) and cell nuclei (blue) with DAPI (Acros Organics). An increase in cellular fluorescence represents an increase in calcium uptake. Fluorescence of the CALCIIa peptide stimulated cells was 1.9 times higher than the control. The average mantle cell size was 3–4 μm and fluorescent images were taken using a Leica DM IL microscope coupled to a Visicam HDMI 6 digital camera and photographs were analysed using ImageJ software (v. 1.52a) to calculate the fluorescence intensity and for image overlay. The scale bar is indicated.\nThe posterior mantle edge region of the Mediterranean mussel was collected and washed in culture medium. The composition of the culture medium was as described in[91] […]"}, "[2]": {"system": "mussel CALCRIa", "test": "Calcium mobilization assay (apoaequorin bioluminescence), dose-response, HEK 293 cells expressing mussel CALCRIa", "format": "cell-based, Mytilus galloprovincialis", "conditions": "for EC50: HEK 293 cells stably expressing receptor, co-transfected with apoaequorin, peptide 1 μM to 0.01 nM, three independent assays in duplicate, read-out: EC50, activation of mussel CALCRIa (intracellular calcium mobilization); for Activation of mussel CALCRIa in dose-response analysis (in words): calcium mobilization, HEK 293/apoaequorin, 1 μM to 0.01 nM", "description": "(§1) The complete sequence of the Mediterranean mussel CALCRIa was amplified using specific primers (Table 1) from cDNA of a tissue mixture (mantle, adductor muscle, gills, gonads) using a proofreading DNA polymerase (iProof BIORAD, Portugal) and cloned into the pGEMT-easy vector (PROMEGA, Spain). The Mediterranean mussel CALCRIIa transcript that was found in the mantle transcriptome was incomplete and lacked the N-terminus (by comparisons with the hard-shelled mussel homologue) and so the remaining sequence (from 1–393 bp) was deduced from the hard-shelled mussel homologue receptor and the receptor was synthesised and supplied by GENESCRIPT (USA). The complete transcripts for mussel CALCRIc, CALCRIIb and CALCRIIc were only found in the hard-shelled mussel mantle transcriptome and homologues were only found in the Mediterranean mussel genome as they were absent from the species mantle transcriptome and so they were also synthesised and supplied by GENESCRIPT (USA) using the hard-shelled mussel receptor sequences as template. The mussel CALCRIb transcript was incomplete and lacked both N and C-terminal regions and it was not possible to obtain the complete transcript either by searching both mussels mantle transcriptomes or the Mediterranean mussel genome and so it was not produced. All synthetized receptors were provided in the pUC57 cloning vector by the company and receptor codon usage was optimized to favour a high level of expression in mammalian cells.\n(§2) Mammalian cell cultures and transfections followed the methodology described by[89],[90]. Mammalian HEK293 cells (ECACC, UK) were used and they were maintained in complete Dulbecco’s modified Eagle’s medium (DMEM, 4.5 g/l glucose, 110 mg/l sodium pyruvate and L-glutamine, SIGMA-ALDRICH, Spain) supplemented with 10% sterile foetal bovine serum (FBS), 0.1% penicillin: streptomycin antibiotic mix (10,000 U:10 mg/ml, Sigma) and 250 μg /ml sterile filtered 1:100 amphotericin B solution (SIGMA-ALDRICH) in a humid 5% CO2 incubator (HERAEUS, Portugal) at 37 °C. On the day prior to transfection, 2–3 × 10^5 HEK293 cells were seeded on 6 well plates (SARSTEDT, Portugal) and transfected with Fugene HD transfection reagent (2 DNA: 4 Fugene ratio, PROMEGA) following the manufacturer’s protocol. Seventy-two hours after transfection, 800 μg/ml of the antibiotic Geneticin (SIGMA-ALDRICH) was added to the medium to select and isolate stable receptor cell lines. Cell recovery was monitored daily and the medium was changed every two days until no cell death was observed. […]\n(§3) HEK293 cells stably expressing five mussel receptors (CALCRIa, CALCRIc, CALCRIIa, CALCRIIb and CALCRIIc) were stimulated with the two mussel peptides and the vertebrate (human and salmon) calcitonins. Receptor activation was assessed in vitro by measuring two intracellular signalling pathways: a) production of cAMP and b) mobilization of calcium (Ca^2+). The cellular response was initially assessed using 10 μM of each peptide. […]\n(§4) Stable cell lines expressing the mussel receptors were transiently co-transfected with the mitochondrial targeted apo-aequorin protein cloned in pcDNA3.1. Two days after transfection cells were washed, counted and resuspended in 1 ml of DMEM /F12 Ham (without phenol red)/0.1% BSA supplemented with 2 µM coelenterazine (SIGMA-ALDRICH). […] The injector system of the Biotek Synergy 4 microplate reader (USA) was used to inject 50 µl of the cell suspensions into wells containing 50 μl of the diluted peptide in DMEM / F12 Ham / 0.1% BSA. […]"}, "[3]": {"system": "mussel CALCRIIc", "test": "Calcium mobilization assay (apoaequorin bioluminescence), dose-response, HEK 293 cells expressing mussel CALCRIIc", "format": "cell-based, Mytilus coruscus", "conditions": "HEK 293/apoaequorin, 1 μM to 0.01 nM", "description": "as §1, with “The mussel CALCRIb transcript was incomplete and lacked both N and C-terminal regions and it was not possible to obtain the complete transcript either by searching both mussels mantle transcriptomes or the Mediterranean mussel genome and so it was not produced. All synthetized receptors were provided in the pUC57 cloning vector by the company and receptor codon usage was optimized to favour a high level of expression in mammalian cells.” left out\nMammalian cell cultures and transfections followed the methodology described by[89],[90]. […] Cell recovery was monitored daily and the medium was changed every two days until no cell death was observed. […]\nas §3\nStable cell lines expressing the mussel receptors were transiently co-transfected with the mitochondrial targeted apo-aequorin protein cloned in pcDNA3.1. Two days after transfection cells were washed, counted and resuspended in 1 ml of DMEM /F12 Ham (without phenol red)/0.1% BSA supplemented with 2 µM coelenterazine (SIGMA-ALDRICH). […]"}, "[4]": {"system": "mussel CALCRIIa", "test": "Calcium mobilization assay (apoaequorin bioluminescence), dose-response, HEK 293 cells expressing mussel CALCRIIa", "format": "cell-based, Mytilus galloprovincialis", "conditions": "for EC50: HEK 293 cells stably expressing receptor, co-transfected with apoaequorin, peptide 1 μM to 0.01 nM, three independent assays in duplicate, read-out: EC50, activation of mussel CALCRIIa (intracellular calcium mobilization); for Activation of mussel CALCRIIa in dose-response analysis (in words): calcium mobilization, HEK 293/apoaequorin, 1 μM to 0.01 nM", "description": "as §1, §2, §3, §4"}, "[5]": {"system": "mussel CALCR-like (CALCRIa, CALCRIc, CALCRIIa, CALCRIIb and CALCRIIc)", "test": "cAMP assay in HEK 293 cells stably expressing the mussel receptors", "format": "cell-based", "conditions": "10 µM peptide, 30 min at 37 °C, 1 mM IBMX; % of Forskolin (10uM) response; single experiment in triplicate (Supplementary Figure 7A)", "description": "Mammalian cell cultures and transfections followed the methodology described by[89],[90]. Mammalian HEK293 cells (ECACC, UK) were used and they were maintained in complete Dulbecco’s modified Eagle’s medium (DMEM, 4.5 g/l glucose, 110 mg/l sodium pyruvate and L-glutamine, SIGMA-ALDRICH, Spain) supplemented with 10% sterile foetal bovine serum (FBS), 0.1% penicillin: streptomycin antibiotic mix (10,000 U:10 mg/ml, Sigma) and 250 μg /ml sterile filtered 1:100 amphotericin B solution (SIGMA-ALDRICH) in a humid 5% CO2 incubator (HERAEUS, Portugal) at 37 °C. […] Cell recovery was monitored daily and the medium was changed every two days until no cell death was observed. […]\nas §3\nThe amount of cAMP produced was determined using a competitive immunoassay with a cryptate labelled anti-cAMP antibody (CISBIO, France) and followed the methodology describe by[89],[90]. […]"}}}
{"smiles": "COc1ccc(CCN(C)CCCC(C#N)(c2ccc(OC)c(OC)c2)C(C)C)cc1OC", "note": "(stereo not shown) [Verapamil]", "values": [{"measurement": "Calcium concentration of mantle fragments relative to the control (in words)", "setting": "[1]", "value": "did not change"}]}
{"smiles": "CC[C@H](C)[C@H](NC(=O)[C@H](C)NC(=O)[C@@H](NC(=O)[C@H](CCC(N)=O)NC(=O)[C@@H]1CCCN1C(=O)[C@H](Cc1ccccc1)NC(=O)[C@@H](NC(=O)[C@H](Cc1c[nH]cn1)NC(=O)[C@H](Cc1ccccc1)NC(=O)[C@H](CCCCN)NC(=O)[C@H](CC(N)=O)NC(=O)[C@H](Cc1ccccc1)NC(=O)[C@H](CC(=O)O)NC(=O)[C@H](CCC(N)=O)NC(=O)[C@@H](NC(=O)[C@H](Cc1ccc(O)cc1)NC(=O)[C@@H](NC(=O)CNC(=O)[C@H](CC(C)C)NC(=O)[C@H](CCSC)NC(=O)[C@@H]1CSSC[C@H](N)C(=O)NCC(=O)N[C@@H](CC(N)=O)C(=O)N[C@@H](CC(C)C)C(=O)N[C@@H](CO)C(=O)N[C@@H]([C@@H](C)O)C(=O)N1)[C@@H](C)O)[C@@H](C)O)[C@@H](C)O)[C@@H](C)O)C(=O)NCC(=O)N[C@H](C(=O)NCC(=O)N[C@@H](C)C(=O)N1CCC[C@H]1C(N)=O)C(C)C", "note": "[human calcitonin, calcitonin]", "values": [{"measurement": "EC50", "setting": "[2]", "value": 9.5, "unit": "nM"}, {"measurement": "Activation of mussel CALCRIa in dose-response analysis (in words)", "setting": "[2]", "value": "activated"}, {"measurement": "Activation of mussel CALCRIIc in dose-response analysis (in words)", "setting": "[3]", "value": "but not CALCRIIc"}, {"measurement": "EC50", "setting": "[4]", "value": 500, "unit": "nM"}, {"measurement": "Activation of mussel CALCRIIa in dose-response analysis (in words)", "setting": "[4]", "value": "activated"}, {"measurement": "Stimulation of all mussel receptors via the cAMP pathway (in words)", "setting": "[5]", "value": "stimulated"}]}
{"smiles": "CC(C)C[C@H](NC(=O)[C@H](CCCCN)NC(=O)CNC(=O)[C@H](CC(C)C)NC(=O)[C@@H](NC(=O)[C@@H]1CSSC[C@H](N)C(=O)N[C@@H](CO)C(=O)N[C@@H](CC(N)=O)C(=O)N[C@@H](CC(C)C)C(=O)N[C@@H](CO)C(=O)N[C@@H]([C@@H](C)O)C(=O)N1)C(C)C)C(=O)N[C@@H](CO)C(=O)N[C@@H](CCC(N)=O)C(=O)N[C@@H](CCC(=O)O)C(=O)N[C@@H](CC(C)C)C(=O)N[C@@H](Cc1c[nH]cn1)C(=O)N[C@@H](CCCCN)C(=O)N[C@@H](CC(C)C)C(=O)N[C@@H](CCC(N)=O)C(=O)N[C@H](C(=O)N[C@@H](Cc1ccc(O)cc1)C(=O)N1CCC[C@H]1C(=O)N[C@@H](CCCNC(=N)N)C(=O)N[C@H](C(=O)N[C@@H](CC(N)=O)C(=O)N[C@H](C(=O)NCC(=O)N[C@@H](CO)C(=O)NCC(=O)N[C@H](C(=O)N1CCC[C@H]1C(N)=O)[C@@H](C)O)[C@@H](C)O)[C@@H](C)O)[C@@H](C)O", "note": "[salmon calcitonin, calcitonin]", "values": [{"measurement": "EC50", "setting": "[2]", "value": 5, "unit": "nM"}, {"measurement": "Activation of mussel CALCRIa in dose-response analysis (in words)", "setting": "[2]", "value": "activated"}, {"measurement": "Activation of mussel CALCRIIc in dose-response analysis (in words)", "setting": "[3]", "value": "but not CALCRIIc"}, {"measurement": "EC50", "setting": "[4]", "value": 14, "unit": "nM"}, {"measurement": "Activation of mussel CALCRIIa in dose-response analysis (in words)", "setting": "[4]", "value": "activated"}, {"measurement": "Stimulation of all mussel receptors via the cAMP pathway (in words)", "setting": "[5]", "value": "stimulated"}]}
